pIC50, pKi: −log10 of the molar value.
Tests used:
[1] = biological target: T1, Serotonin 3 (5-HT3) receptor (Rattus norvegicus, UniProt P35563+Q9JJ16); assay: Binding affinity towards 5-HT3 receptor in rat was evaluated
T1 sequence (P35563 whole entry): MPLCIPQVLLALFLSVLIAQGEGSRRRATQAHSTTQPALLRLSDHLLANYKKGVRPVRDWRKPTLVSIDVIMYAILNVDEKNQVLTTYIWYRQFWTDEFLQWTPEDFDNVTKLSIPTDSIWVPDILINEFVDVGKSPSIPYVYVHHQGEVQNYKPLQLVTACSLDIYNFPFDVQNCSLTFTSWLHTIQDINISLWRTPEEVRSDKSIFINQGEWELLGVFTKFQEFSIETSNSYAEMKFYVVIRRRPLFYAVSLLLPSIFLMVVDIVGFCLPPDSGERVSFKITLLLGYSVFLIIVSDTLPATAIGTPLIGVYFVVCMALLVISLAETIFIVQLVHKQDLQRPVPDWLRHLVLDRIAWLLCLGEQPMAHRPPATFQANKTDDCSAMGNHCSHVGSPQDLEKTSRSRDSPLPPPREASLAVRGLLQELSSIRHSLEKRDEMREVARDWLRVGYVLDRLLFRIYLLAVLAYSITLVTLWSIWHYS
T1 sequence (Q9JJ16 whole entry): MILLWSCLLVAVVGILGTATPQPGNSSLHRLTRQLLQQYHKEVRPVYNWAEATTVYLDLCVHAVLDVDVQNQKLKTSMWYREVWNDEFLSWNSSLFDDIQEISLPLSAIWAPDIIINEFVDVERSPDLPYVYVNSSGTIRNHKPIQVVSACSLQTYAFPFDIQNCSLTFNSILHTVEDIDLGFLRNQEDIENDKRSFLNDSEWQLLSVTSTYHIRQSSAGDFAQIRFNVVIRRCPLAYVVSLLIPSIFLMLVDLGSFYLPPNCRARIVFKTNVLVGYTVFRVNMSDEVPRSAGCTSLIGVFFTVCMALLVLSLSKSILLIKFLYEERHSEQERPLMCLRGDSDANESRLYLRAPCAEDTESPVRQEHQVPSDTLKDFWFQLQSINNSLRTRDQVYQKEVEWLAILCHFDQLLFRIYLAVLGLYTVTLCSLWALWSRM

[2] = biological target: T2, 5-hydroxytryptamine receptor 4 (Cavia porcellus, UniProt O70528); assay: Binding affinity towards 5-hydroxytryptamine 4 receptor in striatum membranes of guinea-pig brain was evaluated; assay type: cell membranes, Membrane
[3] = biological target: T3, D(2) dopamine receptor (Rattus norvegicus, UniProt P61169); assay: Binding affinity towards Dopamine receptor D2 in rat was evaluated
[4] = biological target: T3, D(2) dopamine receptor; assay: Binding affinity towards D2 receptor in rat was evaluated
[5] = biological target: T2, 5-hydroxytryptamine receptor 4; assay: Binding affinity towards 5-HT4 receptor in striatum membranes of guinea-pig brain was evaluated; assay type: cell membranes, Membrane
[6] = biological target: T1, Serotonin 3 (5-HT3) receptor; assay: Binding affinity towards rat 5-hydroxytryptamine 3 receptor was evaluated; assay type: protein-complex assay

T2 sequence (O70528 whole entry): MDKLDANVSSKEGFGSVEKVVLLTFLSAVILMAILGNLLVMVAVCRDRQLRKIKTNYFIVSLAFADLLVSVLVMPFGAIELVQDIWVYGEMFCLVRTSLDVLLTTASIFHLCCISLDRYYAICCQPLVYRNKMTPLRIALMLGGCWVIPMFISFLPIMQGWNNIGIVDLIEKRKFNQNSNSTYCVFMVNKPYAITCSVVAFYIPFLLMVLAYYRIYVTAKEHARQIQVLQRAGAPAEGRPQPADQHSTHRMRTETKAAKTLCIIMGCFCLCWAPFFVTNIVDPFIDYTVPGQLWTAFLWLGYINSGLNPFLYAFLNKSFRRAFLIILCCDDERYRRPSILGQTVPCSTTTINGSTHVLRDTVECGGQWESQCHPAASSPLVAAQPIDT
T3 sequence (P61169 whole entry): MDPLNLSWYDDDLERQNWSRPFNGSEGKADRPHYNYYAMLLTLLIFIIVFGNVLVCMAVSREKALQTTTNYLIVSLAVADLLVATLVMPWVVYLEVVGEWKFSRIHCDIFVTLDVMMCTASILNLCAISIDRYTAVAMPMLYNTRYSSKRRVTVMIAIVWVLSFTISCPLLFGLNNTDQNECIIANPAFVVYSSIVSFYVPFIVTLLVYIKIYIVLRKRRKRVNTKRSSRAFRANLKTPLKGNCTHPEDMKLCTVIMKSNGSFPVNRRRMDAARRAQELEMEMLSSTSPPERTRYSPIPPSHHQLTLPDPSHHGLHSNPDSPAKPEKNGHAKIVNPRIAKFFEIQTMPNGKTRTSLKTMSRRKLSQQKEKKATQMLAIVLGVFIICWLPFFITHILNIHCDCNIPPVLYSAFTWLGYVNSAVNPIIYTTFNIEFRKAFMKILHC

Structure (SMILES) | pKi [1] | pIC50 [2] | pIC50 [3] | pIC50 [1] | pIC50 [4] | pIC50 [5] | other results
COc1cc(N)c(Cl)cc1C(=O)OC1CC2CCC1N(C)C2 (stereo in doubt; anti) | 7.86 | < 6.00 | < 6.00 |  |  |  | 
COc1cc(N)c(Cl)cc1C(=O)NC1CC2CCC1CN2C (stereo in doubt; anti) |  | < 6.00 |  | 4.76 |  |  | pKi [3]: 6.89
COc1cc(N)c(Cl)cc1C(=O)OC1CC2CCC1CN2C (stereo in doubt; syn) | 7.95 |  |  |  | < 6.00 |  | pKi [5]: 6.62
CN1C2CCCC1CC(NC(=O)c1nn(C)c3ccccc13)C2 (centres undefined) [GRANISETRON] |  |  |  |  | < 6.00 | < 6.00 | 
COc1cc(N)c(Cl)cc1C(=O)NC1CC2CCC1CN2C (stereo in doubt; syn) |  |  |  | 6.00 |  | 6.00 | pKi [4]: 6.07
CN1[C@@H]2CC[C@H]1C[C@@H](OC(=O)c1c[nH]c3ccccc13)C2 [TROPISETRON] |  |  | < 6.00 |  |  |  | pKi [6]: 8.81; pKi [2]: 6.90
COc1cc(N)c(Cl)cc1C(=O)OC1CC2CCC1CN2C (stereo in doubt; anti) | 8.28 |  | < 6.00 |  |  |  | pKi [2]: 7.08
COc1cc(N)c(Cl)cc1C(=O)NC1CC2CCC1N(C)C2 (centres undefined) | 6.49 | 6.00 | < 6.00 | < 6.00 | 6.00 | < 6.00 | 
COc1cc(N)c(Cl)cc1C(=O)OC1CC2CCC1N(C)C2 (stereo in doubt; syn) | 6.72 |  |  |  | < 6.00 | < 6.00 | 
